This is an account of results in patent US20260137706A1, “METHODS OF TREATING INFLAMMATORY DISEASES” (INTERLINE THERAPEUTICS, INC., priority 2023, published 2026).

Assay [1] concerns NF-κB pathway (SEAP) in THP1-Dual cells. As to the kind of experiment: THP-1 Dual cell SEAP assay (L18-MDP stimulated). It counts as cell-based. Particulars: Homo sapiens, THP1-Dual, read-out: NF-κB THP1 IC50 bin. The essentials:
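IC50 values derive from non-linear regression of % inhibition, calculated against DMSO/L18-MDP-treated wells after media-only subtraction. NF-κB SEAP activity was read at OD 620-655 nm (QUANTI-Blue, 2 h, 37 °C) from supernatants of THP1-Dual cells. Cells had been compound-treated 30 min before overnight (20-24 h) stimulation with 10 ng/mL final L18-MDP.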

Assay [2] has as its target T1, GST-RIPK2 fusion protein (human RIPK2, amino acids 1-310) (Homo sapiens, UniProt O43353).
T1 construct: made in house; host or cells: baculovirus infected Sf9 cells
As to the kind of experiment: RIPK2 binding competition assay (TR-FRET, Tracer 199 displacement). Particulars: 10 nM Tracer 199, 1 nM GST-RIPK2, read-out: RIPK2 IC50. The text has this:
The ability of selected compounds of Formula (I) to inhibit the binding of an Alexa647-labelled ATP-competitive kinase inhibitor to a GST-RIPK2 fusion protein was quantified employing the TR-FRET-based RIPK2 binding competition assay as described in the following paragraphs.
Recombinant fusion protein of N-terminal Glutathione-S-Transferase (GST) and a fragment of human RIPK2 (amino acids 1-310 of accession number 043353), expressed in baculovirus infected Sf9 cells, purified via glutathione affinity chromatography, was used as GST-RIPK2 fusion protein. Tracer 199 from Life Technologies (catalogue no. PR9115B) was used as Alexa647-labelled ATP-competitive kinase inhibitor.
For the assay, 50 nL of a 100-fold concentrated solution of each test compound in DMSO was pipetted into either a black low volume 384-well microtiter plate or a black 1536-well microtiter plate (both Greiner Bio-One, Frickenhausen, Germany), 3 μL solution of Tracer 199 (16.7 nM=>final concentration in 5 μL assay volume is 10 nM) in aqueous assay buffer (25 mM Tris/HCl pH 7.5, 10 mM magnesium chloride (MgCl2), 5 mM β-glycerophosphate, 2.5 mM dithiothreitol (DTT), 0.5 mM ethylene glycol-bis(2-aminoethylether)-N,N,N′,N′-tetraacetic acid (EGTA), 0.5 mM sodium ortho-vanadate, 0.01% (w/v) bovine serum albumin (BSA), 0.005% (w/v) Pluronic F-127 (Sigma)) were added. Then the binding competition was started by the addition of 2 μL of a solution of the GST-RIPK2 fusion protein (2.5 nM=>final conc. in the 5 μL assay volume is 1 nM) and of Anti-GST-Tb (1.25 nM=>final conc. in the 5 μL assay volume is 0.5 nM), a Lumi4®—Tb cryptate-conjugated anti-GST antibody from PerkinElmer (catalogue no 61GSTTAH), in assay buffer.
The resulting mixture was incubated 45 min at 22° C. to allow the formation of a complex between the Tracer 199, the fusion protein and Anti-GST-Tb. Subsequently, the amount of this complex was evaluated by measurement of the resonance energy transfer from the Tb-cryptate to the Tracer 199. Therefore, the fluorescence emissions at 620 nm and 665 nm after excitation at 337 nm were measured in a TR-FRET reader, e.g. a Pherastar FS (BMG Labtechnologies, Offenburg, Germany) or a Viewlux (PerkinElmer). The ratio of the emissions at 665 nm and at 620 nm was taken as the measure of the amount of the complex. The data were normalized (assay reaction without inhibitor=0% activity, all other assay components but no GST-RIPK2 fusion protein=−100% activity).
Table A1 below lists IC50 values of selected compounds of Formula (I) measured in the RIPK2 binding competition assay.

Assay [3] concerns the target T2, binding of His-XIAP(BIR2)-avi fusion protein to GST-RIPK2 fusion protein (RIPK2/XIAP) (Homo sapiens, UniProt O43353).
T2 construct: made in house; host or cells: baculovirus infected Sf9 cells
As to the kind of experiment: RIPK2-XIAP binding competition PPI assay (TR-FRET). Particulars: RIPK2/XIAP binding competition PPI assay; for Emax: Amax, read-out: PPI Amax bin; for IC50: read-out: PPI IC50 bin. The essentials:
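Compounds (in DMSO, 100-fold stock) incubated 120 min at 23 °C with 1 nM GST-RIPK2 (aa 1-310) and 25 nM His-XIAP(BIR2 aa 152-231)-avi, plus anti-His-XL665 and anti-GST-Tb, in pH 7.5 Tris buffer. Read-out: 665/520 nm emission ratio. Normalized to no-inhibitor (0%) and 50 nM GSK583 (−100%); Amax binned A–D.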
A general note: Time-resolved FRET reads energy transfer from a long-lived donor to a nearby acceptor.

One may read the IC50 as the concentration that inhibits the measured activity by half.

T1 sequence (O43353 1-310): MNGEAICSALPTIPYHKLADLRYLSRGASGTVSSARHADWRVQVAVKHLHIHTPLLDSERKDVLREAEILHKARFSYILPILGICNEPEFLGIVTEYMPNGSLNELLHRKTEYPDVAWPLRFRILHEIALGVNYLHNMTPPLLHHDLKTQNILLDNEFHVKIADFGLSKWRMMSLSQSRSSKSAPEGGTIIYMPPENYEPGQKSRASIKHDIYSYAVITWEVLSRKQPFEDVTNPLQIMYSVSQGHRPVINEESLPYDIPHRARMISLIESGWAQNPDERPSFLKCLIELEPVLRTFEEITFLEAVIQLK
T2 sequence (O43353 1-310 limits assumed): as the sequence (O43353 1-310) above

`COCCn1cc(-c2cc3ncc(-c4cc(F)c(N)nc4F)n3cc2S(=O)(=O)C(C)(C)C)cn1` [Example 23, 5-(6-(tert-butylsulfonyl)-7-(1-(2-methoxyethyl)-1H-pyrazol-4-yl)imidazo[1,2-a]pyridin-3-yl)-3,6-difluoropyridin-2-amine]: the IC50 lay within 0.25 to 1 µM in assay [1], 0.0025 to 0.02 µM in assay [2] and 0.0025 to 0.02 µM in assay [3]. Moreover, the Emax in assay [3] was over 80%.

In the case of `CC(C)(C)S(=O)(=O)c1cn2c(-c3cc(F)c(N)nc3F)cnc2cc1OCCn1cccn1` [Example 24, 5-(7-(2-(1H-pyrazol-1-yl)ethoxy)-6-(tert-butylsulfonyl)imidazo[1,2-a]pyridin-3-yl)-3,6-difluoropyridin-2-amine], the IC50 was 0.05 to 0.25 µM in assay [1], 0.0025 to 0.02 µM in assay [2] and 0.0025 to 0.02 µM in assay [3]. Also, the Emax in assay [3] was over 80%.

Regarding `Cn1ccc(COc2cc3ncc(-c4cc(F)c(N)nc4F)n3cc2S(=O)(=O)C(C)(C)C)n1` [Example 25, 5-(6-(tert-butylsulfonyl)-7-((1-methyl-1H-pyrazol-3-yl)methoxy)imidazo[1,2-a]pyridin-3-yl)-3,6-difluoropyridin-2-amine], the IC50 in assay [1] fell in the range of 0.25 to 1 µM; in assay [2] it was 0.0025 to 0.02 µM; in assay [3] it was 0.0025 to 0.02 µM. For the same molecule, the Emax in assay [3] was over 80%.

Regarding `CC1(COc2cc3ncc(-c4cc(F)c(N)nc4F)n3cc2S(=O)(=O)C(C)(C)C)COC1` [Example 26, 5-(6-(tert-butylsulfonyl)-7-((3-methyloxetan-3-yl)methoxy)imidazo[1,2-a]pyridin-3-yl)-3,6-difluoropyridin-2-amine], the IC50 in assay [1] fell in the range of 0.05 to 0.25 µM; in assay [2] it was 0.001 to 0.0025 µM; in assay [3], 0.0025 to 0.02 µM. Further, in assay [3], the Emax is over 80%.

`Cn1ccc(-c2cc3ncc(-c4cc(F)c(N)nc4F)n3cc2S(=O)(=O)C(C)(C)C)n1` [Example 27, 5-(6-(tert-butylsulfonyl)-7-(1-methyl-1H-pyrazol-3-yl)imidazo[1,2-a]pyridin-3-yl)-3,6-difluoropyridin-2-amine]: the IC50 in assay [1] was over 1 µM; in assay [2], over 0.02 µM; in assay [3] it was over 0.02 µM. For the same molecule, the Emax in assay [3] is over 80%.

For the molecule `CC(C)(O)COc1cc2ncc(-c3cc(F)c(N)nc3F)n2cc1S(=O)(=O)C(C)(C)C` [Example 28, 1-((3-(6-amino-2,5-difluoropyridin-3-yl)-6-(tert-butylsulfonyl)imidazo[1,2-a]pyridin-7-yl)oxy)-2-methylpropan-2-ol], the figures for the IC50 in assay [1], in assay [2] and in assay [3] were 0.05 to 0.25 µM, 0.001 to 0.0025 µM and 0.0025 to 0.02 µM, respectively. The Emax in assay [3] is over 80%.

Take `CC(C)(C)S(=O)(=O)c1cn2c(-c3cc(F)c(N)nc3F)cnc2cc1OCCN1CCOC1=O` [Example 29, 3-(2-((3-(6-amino-2,5-difluoropyridin-3-yl)-6-(tert-butylsulfonyl)imidazo[1,2-a]pyridin-7-yl)oxy)ethyl)oxazolidin-2-one]: the IC50 in assay [1] was 0.25 to 1 µM; in assay [2] it was 0.0025 to 0.02 µM; in assay [3] it was 0.0025 to 0.02 µM. Moreover, the Emax in assay [3] was over 80%.

On to `Cn1cc(COc2cc3ncc(-c4cc(F)c(N)nc4F)n3cc2S(=O)(=O)C(C)(C)C)cn1` [Example 30, 5-(6-(tert-butylsulfonyl)-7-((1-methyl-1H-pyrazol-4-yl)methoxy)imidazo[1,2-a]pyridin-3-yl)-3,6-difluoropyridin-2-amine], for which the results for the IC50 in assay [1], in assay [2] and in assay [3] were 0.05 to 0.25 µM, 0.0025 to 0.02 µM and 0.0025 to 0.02 µM, respectively. The Emax in assay [3] is over 80%.

On to `CC(C)(C)S(=O)(=O)c1cn2c(-c3cc(F)c(N)nc3F)cnc2cc1-c1cn[nH]c1` [Example 31, 5-(6-(tert-butylsulfonyl)-7-(1H-pyrazol-4-yl)imidazo[1,2-a]pyridin-3-yl)-3,6-difluoropyridin-2-amine], for which the half-maximal inhibitory concentration (IC50) is over 1 µM in assay [1], 0.0025 to 0.02 µM in assay [2] and 0.0025 to 0.02 µM in assay [3]. Also, in assay [3], the Emax is over 80%.

With `CC(C)(C)S(=O)(=O)c1cn2c(-c3cc(F)c(N)nc3F)cnc2cc1OCC1COC1` [Example 32, 5-(6-(tert-butylsulfonyl)-7-(oxetan-3-ylmethoxy)imidazo[1,2-a]pyridin-3-yl)-3,6-difluoropyridin-2-amine], the IC50 in assay [1] lay in the range of 0.05 to 0.25 µM; in assay [2], 0.001 to 0.0025 µM; in assay [3], 0.0025 to 0.02 µM. Besides, the Emax in assay [3] was over 80%.

`CC(C)(C)S(=O)(=O)c1cn2c(-c3cc(F)c(N)nc3F)cnc2cc1OC1COC1` [Example 33, 5-(6-(tert-butylsulfonyl)-7-(oxetan-3-yloxy)imidazo[1,2-a]pyridin-3-yl)-3,6-difluoropyridin-2-amine]: the half-maximal inhibitory concentration (IC50) was over 1 µM in assay [1], 0.0025 to 0.02 µM in assay [2] and 0.0025 to 0.02 µM in assay [3]. Also, the Emax in assay [3] is over 80%.

`C[C@H](O)CCOc1cc2ncc(-c3cc(F)c(N)nc3F)n2cc1S(=O)(=O)C(C)(C)C` [Example 34, (S)-4-((3-(6-amino-2,5-difluoropyridin-3-yl)-6-(tert-butylsulfonyl)imidazo[1,2-a]pyridin-7-yl)oxy)butan-2-ol]: the half-inhibitory concentration (IC50) in assay [1] fell in the range of 0.25 to 1 µM; in assay [2] it was 0.0025 to 0.02 µM; in assay [3], 0.0025 to 0.02 µM. In assay [3], the Emax is over 80%.

With `COC1(COc2cc3ncc(-c4cc(F)c(N)nc4F)n3cc2S(=O)(=O)C(C)(C)C)COC1` [Example 35, 5-(6-(tert-butylsulfonyl)-7-((3-methoxyoxetan-3-yl)methoxy)imidazo[1,2-a]pyridin-3-yl)-3,6-difluoropyridin-2-amine], the IC50 in assay [1] lay within 0.25 to 1 µM; in assay [2], 0.0025 to 0.02 µM; in assay [3], 0.0025 to 0.02 µM. Besides, in assay [3], the Emax is over 80%.

Turning to `C[C@@H](O)CCOc1cc2ncc(-c3cc(F)c(N)nc3F)n2cc1S(=O)(=O)C(C)(C)C` [Example 36, (R)-4-((3-(6-amino-2,5-difluoropyridin-3-yl)-6-(tert-butylsulfonyl)imidazo[1,2-a]pyridin-7-yl)oxy)butan-2-ol], the IC50 in assay [1] was 0.05 to 0.25 µM; in assay [2], 0.001 to 0.0025 µM; in assay [3], 0.0025 to 0.02 µM. For the same molecule, the Emax in assay [3] was over 80%.

For `CC(C)(C)S(=O)(=O)c1cn2c(-c3cc(F)c(N)nc3F)cnc2cc1-c1cc[nH]n1` [Example 37, 5-(6-(tert-butylsulfonyl)-7-(1H-pyrazol-3-yl)imidazo[1,2-a]pyridin-3-yl)-3,6-difluoropyridin-2-amine], the half-inhibitory concentration (IC50) in assay [1] is over 1 µM; in assay [2] it was over 0.02 µM; in assay [3], over 0.02 µM. Also, in assay [3], the Emax is over 80%.

With `CC(C)(C)S(=O)(=O)c1cn2c(-c3cc(F)c(N)nc3F)cnc2cc1OCC1(O)COC1` [Example 38, 3-(((3-(6-amino-2,5-difluoropyridin-3-yl)-6-(tert-butylsulfonyl)imidazo[1,2-a]pyridin-7-yl)oxy)methyl)oxetan-3-ol], the IC50 was 0.05 to 0.25 µM in assay [1], 0.001 to 0.0025 µM in assay [2] and 0.0025 to 0.02 µM in assay [3]. In addition, in assay [3], the Emax is over 80%.

Regarding `CC(C)(C)S(=O)(=O)c1cn2c(-c3cc(F)c(N)nc3F)cnc2cc1CO` [Example 39, (3-(6-amino-2,5-difluoropyridin-3-yl)-6-(tert-butylsulfonyl)imidazo[1,2-a]pyridin-7-yl)methanol], the IC50 in assay [1] is over 1 µM; in assay [2], over 0.02 µM; in assay [3], over 0.02 µM. In assay [3], the Emax is over 80%.
